The record followed here is patent EP4725941A1, “ARYLAMIDE DERIVATIVE HAVING ANTITUMOR ACTIVITY” (priority 2020, dated 2021).

The test system of one series is A549. The series is described as follows: Cell proliferation-inhibiting activity (ATP in viable cells, CellTiter-Glo), A549. Type of series: cell-based, human. The settings on record: A549, 96 h; human lung cancer cells, 4 days; read-out: A549 IC50.
The target of a further series is T1, MEK1 (Homo sapiens, UniProt Q02750).
T1 construct: purchased Thermo Fisher Scientific Inc. (MEK1, CRAF); Carna Biosciences, Inc. (ERK2)
T1 sequence (Q02750 whole entry): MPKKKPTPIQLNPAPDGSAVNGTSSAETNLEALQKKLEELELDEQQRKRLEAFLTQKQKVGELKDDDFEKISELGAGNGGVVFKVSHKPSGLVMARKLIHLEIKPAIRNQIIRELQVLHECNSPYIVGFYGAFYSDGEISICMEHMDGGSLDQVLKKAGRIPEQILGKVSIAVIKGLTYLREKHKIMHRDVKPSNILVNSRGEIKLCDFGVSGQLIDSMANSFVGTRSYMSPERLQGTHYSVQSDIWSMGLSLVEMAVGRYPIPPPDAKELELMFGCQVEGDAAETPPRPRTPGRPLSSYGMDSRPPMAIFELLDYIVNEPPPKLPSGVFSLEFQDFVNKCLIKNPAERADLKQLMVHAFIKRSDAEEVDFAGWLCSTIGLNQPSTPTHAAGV
As to the kind of experiment: MEK1-inhibiting activity, fluorescent polarization method (CRAF/MEK1/ERK2 cascade, IMAP). Type of series: biochemical. The note with it: Table 3; read-out: MEK1 IC50. As to the method:
The MEK1-inhibiting activity of the compounds listed in Table 3 below were evaluated by the fluorescent polarization method as described below.

The next series has as its system NCI-H2122. The series is described as follows: Cell proliferation-inhibiting activity (ATP in viable cells, CellTiter-Glo), NCI-H2122. In kind it is cell-based, human. The note with it: NCI-H2122, 96 h; human lung cancer cells, 4 days; read-out: NCI-H2122 IC50.
Series [1] can be described thus: Human liver microsome stability. Type of series: in vitro ADME. The settings on record: human liver microsomes, pH 7.4.
Another series concerns the target T2, BRAF (Homo sapiens, UniProt P15056).
T2 construct: purchased Eurofins Genomics KK; (BRAF); Thermo Fisher Scientific Inc. (MEK1)
The series is described as follows: BRAF-inhibiting activity, time-resolved fluorescence-fluorescence resonance energy transfer assay. In kind it is biochemical. The settings on record: read-out: BRAF IC50; Table 3. The protocol: The BRAF-inhibiting activity of the compounds listed in Table 3 below was evaluated by the time-resolved fluorescence-fluorescence resonance energy transfer assay as described below.

The next series has as its system Calu-6. The series is described as follows: Cell proliferation-inhibiting activity (ATP in viable cells, CellTiter-Glo), Calu-6. Type of series: cell-based, human. The settings on record: Calu-6, 96 h; human lung cancer cells, 4 days; read-out: Calu-6 IC50.

T2 sequence (P15056 417-766 limits assumed): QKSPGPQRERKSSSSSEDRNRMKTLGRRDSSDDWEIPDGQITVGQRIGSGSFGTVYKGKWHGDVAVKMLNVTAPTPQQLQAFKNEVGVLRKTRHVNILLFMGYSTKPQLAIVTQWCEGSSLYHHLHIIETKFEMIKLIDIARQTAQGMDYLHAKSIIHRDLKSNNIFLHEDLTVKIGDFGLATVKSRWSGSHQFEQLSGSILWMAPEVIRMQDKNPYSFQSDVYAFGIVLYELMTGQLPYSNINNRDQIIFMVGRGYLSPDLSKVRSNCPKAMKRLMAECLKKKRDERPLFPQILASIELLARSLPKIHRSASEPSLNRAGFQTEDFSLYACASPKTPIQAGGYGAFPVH

Take `COCCNS(=O)(=O)Nc1nccc(Cc2cc(C(N)=O)c(Nc3ccc(I)cc3F)c(F)c2F)c1F` [Compound A-33, 3,4-difluoro-2-(2-fluoro-4-iodoanilino)-5-[[3-fluoro-2-(2-methoxyethylsulfamoylamino)pyridin-4-yl]methyl]benzamide]: the IC50 was 27 nM in the series on A549; 10 nM at MEK1; 8 nM with NCI-H2122; 2 nM at BRAF; 68 nM with Calu-6. Moreover, the microsomal CLint at 0.99 µM in series [1] was determined as 6 µL/min/mg.

`CC(C)CNS(=O)(=O)Nc1nccc(Cc2cc(C(N)=O)c(Nc3ccc(I)cc3F)c(F)c2F)c1F` [Compound A-34, 3,4-difluoro-2-(2-fluoro-4-iodoanilino)-5-[[3-fluoro-2-(2-methylpropylsulfamoylamino)pyridin-4-yl]methyl]benzamide]: the IC50 worked out at 27 nM in the series with A549; 81 nM on MEK1; 12 nM with NCI-H2122; 3 nM on BRAF; 79 nM with Calu-6. The intrinsic clearance (microsomal CLint) at 0.99 µM in series [1] amounted to 17 µL/min/mg.

In the case of `CC1(NS(=O)(=O)Nc2nccc(Cc3cc(C(N)=O)c(Nc4ccc(I)cc4F)c(F)c3F)c2F)CCC1` [Compound A-35, 3,4-difluoro-2-(2-fluoro-4-iodoanilino)-5-[[3-fluoro-2-[(1-methylcyclobutyl)sulfamoylamino]pyridin-4-yl]methyl]benzamide], the IC50 in the series on A549 came out at 21 nM; at MEK1 it was 66 nM; with NCI-H2122, 4 nM; on BRAF, 28 nM; with Calu-6, 34 nM. Also, the microsomal CLint at 0.99 µM in series [1] is 15 µL/min/mg.

In the case of `NC(=O)c1cc(Cc2ccnc(NS(=O)(=O)NCC3CC3)c2F)c(F)c(F)c1Nc1ccc(I)cc1F` [Compound A-36], the IC50 in the series with A549 was determined as 26 nM; on MEK1 it was 74 nM; in the series with NCI-H2122, 17 nM; at BRAF it was 5 nM; with Calu-6 it was 61 nM. This compound also returned a microsomal CLint at 0.99 µM in series [1] of 18 µL/min/mg.

As to `CC(C)(C)NS(=O)(=O)Nc1nccc(Cc2cc(C(N)=O)c(Nc3ccc(I)cc3F)c(F)c2F)c1F` [Compound A-37, 5-[[2-(tert-Butylsulfamoylamino)-3-fluoropyridin-4-yl]methyl]-3,4-difl uoro-2-(2-fluoro-4-iodoanilino)benzamide], the IC50 in the series with A549 turned out to be 21 nM; at MEK1 it was 50 nM; with NCI-H2122, 7 nM; on BRAF, 7 nM; with Calu-6, 26 nM. Further, the microsomal CLint at 0.99 µM in series [1] was found to be 10 µL/min/mg.

In the case of `CCNS(=O)(=O)Nc1nccc(Cc2cc(C(N)=O)c(Nc3ccc(I)cc3F)c(F)c2F)c1F` [Compound A-40, 5-[[2-(ethylsulfamoylamino)-3-fluoropyridin-4-yl]methyl]-3,4-d ifluoro-2-(2-fluoro-4-iodoanilino)benzamide], the IC50 with A549 is 4 nM; on MEK1 it was 19 nM; in the series on NCI-H2122, 2 nM; on BRAF it was 2 nM; in the series with Calu-6, 12 nM. This compound also yielded a microsomal CLint at 0.99 µM in series [1] of 2 µL/min/mg.

Turning to `CCCNS(=O)(=O)Nc1nccc(Cc2cc(C(N)=O)c(Nc3ccc(I)cc3F)c(F)c2F)c1F` [Compound A-41, 3,4-difluoro-2-(2-fluoro-4-iodoanilino)-5-[[3-fluoro-2-(propylsulfamoylamino)pyridin-4-yl]methyl]benzamide], the IC50 with A549 stood at 12 nM; on MEK1, 29 nM; in the series with NCI-H2122, 2 nM; at BRAF it was 7 nM; in the series on Calu-6, 8 nM. This compound also yielded a microsomal CLint at 0.99 µM in series [1] of 5 µL/min/mg.

With `NC(=O)c1cc(Cc2ccnc(NS(=O)(=O)NCCF)c2F)c(F)c(F)c1Nc1ccc(I)cc1F` [Compound A-42, 3,4-difluoro-5-[[3-fluoro-2-(2-fluoroethylsulfamoylamino)pyridin-4-yl]methyl]-2-(2-fluoro-4-iodoanilino)benzamide], the IC50 was found to be 9 nM in the series with A549; 18 nM at MEK1; 7 nM with NCI-H2122; 6 nM on BRAF; 68 nM with Calu-6. In series [1], this compound had a microsomal CLint at 0.99 µM of 6 µL/min/mg.

`CNS(=O)(=O)Nc1nccc(Cc2cc(C(=O)NOCCO)c(Nc3ccc(I)cc3F)c(F)c2F)c1F` [Compound B-1, 3,4-difluoro-2-(2-fluoro-4-iodoanilino)-5-[[3-fluoro-2-(methylsulfamoylamino)pyridin-4-yl]methyl]-N-(2-hydroxyethoxy)benzamide]: the IC50 with A549 worked out at 6 nM; on MEK1, 2 nM; with NCI-H2122 it was 2 nM; on BRAF it was 5 nM; in the series with Calu-6, 11 nM. The microsomal CLint at 0.99 µM in series [1] turned out to be 15 µL/min/mg.

As to `CNS(=O)(=O)Nc1nccc(Cc2cc(C(=O)NOCCOC)c(Nc3ccc(I)cc3F)c(F)c2F)c1F` [Compound B-2, 3,4-Difluoro-2-(2-fluoro-4-iodoanilino)-5-[[3-fluoro-2-(methylsulfamoylamino)pyridin-4-yl]methyl]-N-(2-methoxyethoxy)benzamide], the IC50 stood at 1 nM in the series on A549; 4 nM at MEK1; 1 nM with NCI-H2122; 3 nM on BRAF; 7 nM with Calu-6. In addition, the microsomal CLint at 0.99 µM in series [1] was determined as 53 µL/min/mg.

With `NC(=O)c1cc(Cc2ccnc(NS(N)(=O)=O)c2F)c(F)c(F)c1Nc1ccc(I)cc1F` [Compound B-10, 3,4-Difluoro-2-(2-fluoro-4-iodoanilino)-5-[[3-fluoro-2-(sulfamoylamino)pyridin-4-yl]methyl]benzamide], the IC50 in the series with A549 was 72 nM; on MEK1, 22 nM; in the series with NCI-H2122 it was 8 nM; at BRAF, 11 nM; with Calu-6, 33 nM. Besides, the microsomal CLint at 0.99 µM in series [1] was found to be 3 µL/min/mg.

In the case of `NC(=O)c1cc(Cc2ccnc(NS(=O)(=O)NC3CC3)c2F)c(F)c(F)c1Nc1ccc(I)cc1Cl` [Compound B-11, 2-(2-Chloro-4-iodoanilino)-5-[[2-(cyclopropylsulfamoylamino)-3-fluor opyridin-4-yl]methyl]-3,4-difluorobenzamide], the IC50 in the series with A549 is 18 nM; at MEK1, 19 nM; in the series on NCI-H2122, 16 nM; at BRAF it was 3 nM; with Calu-6, 43 nM. In addition, in series [1], the microsomal CLint at 0.99 µM is 26 µL/min/mg.

With `O=C(NC1CC1)c1cc(Cc2ccnc(NS(=O)(=O)NC3CC3)c2F)c(F)c(F)c1Nc1ccc(I)cc1Cl` [Compound B-12, 2-(2-Chloro-4-iodoanilino)-N-cyclopropyl-5-[[2-(cyclopropylsulfamoylamino)-3-fluoropyridin-4-yl]methyl]-3,4-difluorobenzamide], the IC50 turned out to be 14 nM in the series on A549; 61 nM on MEK1; 8 nM with NCI-H2122; 8 nM at BRAF; 30 nM in the series on Calu-6. In series [1], the microsomal CLint at 0.99 µM is 39 µL/min/mg.

On to `CC(C)(C)ONC(=O)c1cc(Cc2ccnc(NS(=O)(=O)NC3CC3)c2F)c(F)c(F)c1Nc1ccc(I)cc1Cl` [Compound B-13, 2-(2-Chloro-4-iodoanilino)-5-[[2-(cyclopropylsulfamoylamino)-3-fluor opyridin-4-yl]methyl]-3,4-difluoro-N-[(2-methylpropan-2-yl)oxy]benzamide], for which the IC50 was 26 nM in the series on A549; 13 nM on MEK1; 14 nM with NCI-H2122; 10 nM at BRAF; 34 nM with Calu-6. The compound further displayed a microsomal CLint at 0.99 µM in series [1] of 66 µL/min/mg.

Consider `NC(=O)c1cc(Cc2ccnc(NS(N)(=O)=O)c2)c(F)c(F)c1Nc1ccc(I)cc1F` [Compound C-1, 3,4-Difluoro-2-(2-fluoro-4-iodoanilino)-5-[[2-(sulfamoylamino)pyridin-4-yl]methyl]benzamide], for which the IC50 with A549 came to 7 nM; on MEK1, 72 nM; with NCI-H2122, 4 nM; on BRAF, 4 nM; in the series with Calu-6, 16 nM. In addition, the microsomal CLint at 0.99 µM in series [1] stood at 10 µL/min/mg.

With `CNS(=O)(=O)Nc1cccc(Cc2cc(C(=O)NC3CC3)c(Nc3ccc(I)cc3F)c(F)c2F)c1` [Compound C-6, N-Cyclopropyl-3,4-difluoro-2-(2-fluoro-4-iodoanilino)-5-[[3-(methylsulfamoylamino)phenyl]methyl]benzamide], the IC50 in the series with A549 was 6 nM; at MEK1 it was 268 nM; with NCI-H2122 it was 4 nM; on BRAF, 9 nM; in the series on Calu-6 it was 31 nM. Moreover, the microsomal CLint at 0.99 µM in series [1] worked out at 74 µL/min/mg.

For `CCS(=O)(=O)Nc1cccc(Cc2cc(C(N)=O)c(Nc3ccc(I)cc3F)c(F)c2F)c1F` [Compound D-4, 5-[[3-(ethylsulfonylamino)-2-fluorophenyl]methyl]-3,4-difluoro-2-(2-fluoro-4-iodoanilino)benzamide], the IC50 with A549 turned out to be 16 nM; at MEK1, 196 nM; in the series with NCI-H2122, 5 nM; on BRAF it was 3 nM; with Calu-6 it was 67 nM. For the same compound, in series [1], the microsomal CLint at 0.99 µM is 9 µL/min/mg.

Take `COCCS(=O)(=O)Nc1cccc(Cc2cc(C(N)=O)c(Nc3ccc(I)cc3F)c(F)c2F)c1F` [Compound D-5, 3,4-Difluoro-2-(2-fluoro-4-iodoanilino)-5-[[2-fluoro-3-(2-methoxyethylsulfonylamino)phenyl]methyl]benzamide]: the IC50 was determined as 10 nM with A549; 169 nM at MEK1; 5 nM in the series on NCI-H2122; 7 nM on BRAF; 71 nM with Calu-6. The microsomal CLint at 0.99 µM in series [1] amounted to 28 µL/min/mg.
